Assay results from US4038480A, “6-Aminocarbonyl purine 3',5'-cyclic nucleotides” (ICN Pharmaceuticals, Inc., priority 1973, dated 1977).
Counter-ions that a name gives are not always drawn.

Columns and labels:
lipolysis = assay: Activation of lipolysis
[1] = target: rabbit lung cAMP phosphodiesterase; assay: Inhibition of rabbit lung cAMP phosphodiesterase; assay type: biochemical; settings: read-out: I50, Rabbit Lung
From the text: (§1) The results appear in Table I below.

[2] = tested on: rabbit kidney high Km C-AMP phosphodiesterase; assay: Vulnerability to degradation (hydrolysis) by high Km C-AMP phosphodiesterase; assay type: biochemical; settings: for resistance to hydrolysis compared with C-AMP: rabbit kidney high Km phosphodiesterase
From the text: In fact, hydrolysis to any appreciable extent could be detected only in the case of compound 8 (hydrolysis at a rate only 8% that of C-AMP).

adenyl cyclase = assay: Inhibition of adenyl cyclase; assay type: biochemical
steroidogenisis = assay: Activation of steroidogenesis
[3] = target: beef heart cAMP phosphodiesterase; assay: Inhibition of beef heart cAMP phosphodiesterase; assay type: biochemical; settings: read-out: I50, Beef Heart
From the text: as §1

[4] = tested on: bovine brain C-AMP dependent kinase; assay: Activation of C-AMP dependent protein kinase; assay type: biochemical; settings: for kinase activation compared with C-AMP: bovine brain kinase, comparison in words
Protocol: Preferred carbamoyl compounds prepared as in the preceding examples were assayed for ability to activate protein kinase by the procedure described in K. Muneyama et al, Biochem. 10, 2390 (1971), using bovine brain C-AMP dependent kinase purified according to Kuo & Greengard, in Proc. Nat. Acad. Sci. U.S.A. 64, 1349 (1969). […] K. Muneyama et al, supra.

[5] = Inotropic action (cardiac output, heart rate); assay type: in vivo; settings: inotropic agent
[6] = tested on: bovine brain C-AMP dependent kinase; settings: relative to C-AMP; K. Muneyama et al; cited from earlier work
[7] = Lowering of blood pressure; settings: in vivo

Row | SMILES | IC50 [1] [µM] | resistance to hydrolysis compared with C-AMP [2] | IC50 [3] [µM] | activation of lipolysis, concentration compared with C-AMP (lipolysis) | activation of steroidogenesis, concentration compared with C-AMP (steroidogenisis) | lowering of blood pressure [7] | further results
1 | Nc1ncnc2c1nc(S)n2[C@@H]1O[C@@H]2COP(=O)(O)O[C@H]2[C@H]1O [8-thio derivative of C-AMP] | – | – | – | – | – | – | Ka' (highest value previously reported in the literature) [6]: 3.77
2 | CCCNC(=O)Nc1ncnc2c1ncn2[C@@H]1O[C@@H]2COP(=O)(O)O[C@H]2[C@H]1O [Compound 6, N^6-(N-Propylcarbamoyl) adenosine 3',5'-cyclic phosphate] | – | more resistant to hydrolysis than C-AMP | – | at concentrations substantially lower than C-AMP | at concentrations substantially lower than C-AMP | act to lower blood pressure | kinase activation compared with C-AMP [4]: superior in kinase activation to C-AMP itself
3 | CCOC(=O)Nc1ncnc2c1ncn2[C@@H]1O[C@@H]2COP(=O)(O)O[C@H]2[C@H]1O [Compound 8, N^6-(Ethoxycarbonyl)adenosine 3'5'-cyclic phosphate] | 210 | more resistant to hydrolysis than C-AMP | 130 | at concentrations substantially lower than C-AMP | at concentrations substantially lower than C-AMP | act to lower blood pressure | rate of hydrolysis relative to C-AMP ([2]; rate as % that of C-AMP): 8%
4 | O=C(Nc1ccccc1)Nc1ncnc2c1nc(SCc1ccccc1)n2[C@@H]1O[C@@H]2COP(=O)(O)O[C@H]2[C@H]1OC(=O)Nc1ccccc1 [Compound 12, 8-Benzylthio-N^6,2'-O-bis-(N-phenylcarbamoyl) adenosine 3',5'-cyclic phosphate sodium salt] | 10 | more resistant to hydrolysis than C-AMP | 22 | – | – | – | –
5 | Cn1c(=O)c2[nH]cnc2n(C)c1=O [Theophylline, reference compound] | 230 | – | 130 | – | – | – | –
6 | O=C(Nc1ccccc1)Nc1ncnc2c1ncn2[C@@H]1O[C@@H]2COP(=O)(O)O[C@H]2[C@H]1OC(=O)Nc1ccccc1 [Compound 4, N^6, 2'-O-bis-(N-Phenylcarbamoyl)adenosine 3',5'-cyclic phosphate sodium salt] | 190 | more resistant to hydrolysis than C-AMP | 93 | – | – | – | –

More lines, main results first:

Row | IC50 [1] [µM] | resistance to hydrolysis compared with C-AMP [2] | IC50 [3] [µM] | SMILES | activation of lipolysis, concentration compared with C-AMP (lipolysis) | activation of steroidogenesis, concentration compared with C-AMP (steroidogenisis) | lowering of blood pressure [7] | further results
7 | 160 | more resistant to hydrolysis than C-AMP | 22 | O=C(Nc1ccccc1)Nc1ncnc2c1ncn2[C@@H]1O[C@@H]2COP(=O)(O)O[C@H]2[C@H]1O [Compound 7, N^6-(N-Phenylcarbamoyl)adenosine 3',5'-cyclic phosphate] | at concentrations substantially lower than C-AMP | at concentrations substantially lower than C-AMP | – | inhibition of adenyl cyclase (adenyl cyclase): inhibit adenyl cyclase; Ka' (Ka for C-AMP/Ka for test compound) ([4]; Ka from Lineweaver-Burk plot, relative to C-AMP): 4.9; kinase activation compared with C-AMP [4]: superior in kinase activation to C-AMP itself; activation of protein kinase relative to C-AMP (times better) ([4]; bovine brain protein kinase, relative to C-AMP): approximately five; effect on heart rate [5]: without deleteriously affecting heart rate; persistence of inotropic action [5]: persistent in action; increase of cardiac output compared with aminophylline ([5]; compared with aminophylline): the equal of aminophylline in increasing cardiac output
8 | – | more resistant to hydrolysis than C-AMP | – | CNC(=O)Nc1ncnc2c1ncn2[C@@H]1O[C@@H]2COP(=O)(O)O[C@H]2[C@H]1OC(=O)NC [Compound 2, N^6, 2'-O-bis-(N-Methylcarbamoyl)adenosine 3',5'-cyclic phosphate sodium salt] | – | – | – | –
9 | – | more resistant to hydrolysis than C-AMP | – | CCCNC(=O)Nc1ncnc2c1ncn2[C@@H]1O[C@@H]2COP(=O)(O)O[C@H]2[C@H]1OC(=O)NCCC [Compound 3, N^6, 2'-O-bis-(N-Propylcarbamoyl)adenosine 3', 5'-cyclic phosphate sodium salt] | – | – | – | –
10 | 21 | more resistant to hydrolysis than C-AMP | 14 | O=C(Nc1ccccc1)Nc1ncnc2c1nc(SCc1ccccc1)n2[C@@H]1O[C@@H]2COP(=O)(O)O[C@H]2[C@H]1O [Compound 15, 8-Benzylthio-N^6-(N-phenylcarbamoyl)adenosine 3',5'-cyclic phosphate] | – | – | act to lower blood pressure | inhibition of adenyl cyclase (adenyl cyclase): inhibit adenyl cyclase; kinase activation compared with C-AMP [4]: superior in kinase activation to C-AMP itself
11 | – | more resistant to hydrolysis than C-AMP | – | CNC(=O)Nc1ncnc2c1ncn2[C@@H]1O[C@@H]2COP(=O)(O)O[C@H]2[C@H]1O [Compound 5, N^6-(N-Methylcarbamoyl) adenosine 3',5'-cyclic phosphate] | at concentrations substantially lower than C-AMP | at concentrations substantially lower than C-AMP | act to lower blood pressure | –
12 | 130 | more resistant to hydrolysis than C-AMP | 260 | CNC(=O)Nc1ncnc2c1nc(Br)n2[C@@H]1O[C@@H]2COP(=O)(O)O[C@H]2[C@H]1OC(=O)NC [Compound 11, 8-Bromo-N^6,2'-O-bis-(N-methylcarbamoyl)adenosine 3',5'-cyclic phosphate] | – | – | – | –
13 | – | more resistant to hydrolysis than C-AMP | – | CNC(=O)Nc1ncnc2c1nc(S)n2[C@@H]1O[C@@H]2COP(=O)(O)O[C@H]2[C@H]1OC(=O)NC [Compound 16, N^6,2'-O-bis-(N-Methylcarbamoyl)-8-mercaptoadenosine 3',5'-cyclic phosphate sodium salt] | – | – | – | –
